Structures are written as SMILES.

For one test, the target named is T1, PPARδ (Mus musculus, UniProt P35396).
T1 construct: expressed in transfected cells; host or cells: HEK293 / HEK293T
T1 sequence (P35396 1-440): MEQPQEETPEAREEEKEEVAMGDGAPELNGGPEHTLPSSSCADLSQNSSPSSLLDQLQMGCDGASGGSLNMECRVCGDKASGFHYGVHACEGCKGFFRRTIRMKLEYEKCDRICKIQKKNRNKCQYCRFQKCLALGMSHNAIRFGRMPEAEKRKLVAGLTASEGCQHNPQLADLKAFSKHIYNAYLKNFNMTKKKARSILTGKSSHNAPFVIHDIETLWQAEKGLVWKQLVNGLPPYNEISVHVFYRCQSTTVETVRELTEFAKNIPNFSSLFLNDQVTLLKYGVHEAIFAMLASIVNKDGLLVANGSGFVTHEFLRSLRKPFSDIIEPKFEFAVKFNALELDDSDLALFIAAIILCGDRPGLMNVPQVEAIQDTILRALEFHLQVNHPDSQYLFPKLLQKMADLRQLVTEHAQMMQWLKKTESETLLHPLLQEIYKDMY
The test is described as follows: PPRE-TK-LUC reporter transient transfection, PPARδ. The conditions noted are these: 20 μM AJA (FIG. 3C). It is filed as cell-based. The method, then:
For PPARγ activation assay, HEK293 cells were plated in 12-well cell culture plates and maintained in Dulbecco's modified Eagle's medium (DMEM) supplemented with 10% fetal bovine serum (FBS) at 37° C. under 5% CO2. Cells were changed to phenol red-free DMEM supplemented with 10% charcoal-stripped fetal bovine serum 3 hours before transfection by a standard calcium-phosphate precipitation method. Twelve hours after transfection, the cells were washed with phosphate-buffered saline (PBS) and fed again with fresh medium containing the indicated concentrations of compounds. After 36 hours, cells were harvested for β-galactosidase and luciferase activities as described previously (Li et al., Proc Natl Acad Sci USA 94:8479-84, 1997). The average normalized luciferase activity was determined via triplicate experiments. For IL-8 promoter assay, HeLa cells were maintained and transfected in the same way as described above. After transfection, cells were recovered for 4 hours before treatment with AJA, GW347845, or solvent. After 3-4 hours, cells were treated with or without 25 nM of phorbol myristate acetate (PMA) for 24 hours.
In an effort to confirm that AJA activates PPARγ selectively, the ability of AJA to activate PPARα and PPARδ was analyzed in a similar transient transfection assay.

In test [1] the test system is PPARγ2 and aP2 gene expression in 3T3 L1 cells. The test is described as follows: RT-PCR of adipocyte-specific genes. It is filed as cell-based. To be noted: versus vehicle control. How it is done:
The adipocyte differentiation assay was performed as described by Mukherjee et. al. (Mol Endocrinol 14: 1425-33, 2000). The 3T3 L1 cells (American Type Culture Collection) were cultured in DMEM media supplemented with 10% calf serum. Two days after reaching confluence, cells were treated with AJA, GW347845, or vehicle (0.1% DMSO) in the presence of 10 μg/ml insulin every other day. After 10 days of treatment with AJA or 7 days with GW347845 at confluence, cells were fixed and stained with Oil Red O (Sigma). For RT-PCR, total cellular RNAs were isolated by TRIzol (Gibco). Reverse transcriptase polymerase chain reaction (RT-PCR) was performed using the superscript first-strand synthesis kit (Invitrogen). After first-strand cDNA was synthesized by use of oligo (dT), cDNA was amplified by PCR. The forward primers and reverse primers used in the amplifications were 5′-GCTGTTATGGGTGAAACTCTGGGAG-3′(SEQ ID NO: 1), and 5′-CTTCATGAGGCCTGTTGTAGAGC-3′ (SEQ ID NO:2), for PPARγ2, 5′-GAGCAAATGGAGTTCCCAGATG-3′ (SEQ ID NO: 3), and 5′-GCAAACAATGGGAATAGTTCACAGTAG-3′ (SEQ ID NO: 4), for aP2, and 5′-GACCACAGTCCATGCCATCAC-3′(SEQ ID NO: 5), and 5′-CATACCAGGAAATGAGCTGAC-3′ (SEQ ID NO: 6), for GAPDH. PCR amplifications were performed in 50 μL volume with Taq DNA polymerase for 30 cycles.
To confirm that AJA and GW347845 induce 3T3 L1 cell differentiation into adipocytes, the expression levels of the adipocyte-specific genes PPARγ2 and aP2 were measured by RT-PCR. Total RNA was isolated after AJA or GW347845 treatment, and compared with vehicle control. Reverse transcription was conducted and the relative amounts of PPARγ2 and aP2 transcripts were measured by PCR reactions using primer sets specific to each gene. PCR products were analyzed on 1% agarose gel and stained with Ethidium Bromide. […] As a control for the induction specificity and the PCR amplification reaction, the expression levels of GADPH were measured in all samples, and found not affected by any treatment.

For the compound `CCCCCCC(C)(C)c1cc(O)c2c(c1)OC(C)(C)[C@@H]1CC=C(C(=O)O)C[C@@H]21` [AJA, dimethylheptyl-THC-11-oic acid], the “activation of PPARδ” value at PPARδ is on record as “neither did AJA activate PPARδ”. In addition, in test [1], the PPARγ2 gene expression result was “enhanced PPARγ2 and aP2 gene expression significantly”; the aP2 gene expression result is “enhanced PPARγ2 and aP2 gene expression significantly”.

Values taken from US20040186166A1, “Cannabinoid analogs as peroxisome proliferator activated nuclear receptor gamma activators” (priority 2002, published 2004).
